Literature values in patent publication US10905730B2, “Phytocannabinoid topical compositions for releiving pain” (priority 2017, dated 2021).
Where two headings read alike, the source gives them in different places.

For `C=C(C)[C@@H]1CCC(C)=C[C@H]1c1c(O)cc(CCCCC)cc1O` [CBD, cannabidiol], the “solubility in organic solvents” value is listed as “soluble in organic solvents such as pentane”, the solubility in water is listed as “insoluble in water” and the chemical stability (acidic conditions) is listed as “cyclizes to THC”. For the same compound, the chemical stability (strongly basic media and presence of air) was “oxidized to a quinone”.
